Data: patent US9969752B2, “Inhibitors of HIF prolyl hydroxylase” (MERCK SHARP & DOHME CORP., priority 2014, dated 2018)

What follows are compounds tested against T1, Human HIF-PHD2 (Homo sapiens, UniProt Q9GZT9) (assay: Inhibition of the hydroxylation of a HIF peptide by PHD2 (time resolved fluorescence, 384-well)). Settings: FLAG-tagged full length PHD2; 0.2 μM 2-oxoglutarate, 0.5 μM HIF-1α peptide; 45 minutes at room temperature; read-out: Human HIF-PHD2 IC50.
T1 construct: FLAG-tagged full length PHD2 expressed in and purified from baculovirus-infected Sf9 cells; FLAG; made in house; host or cells: baculovirus-infected Sf9 cells
Format: biochemical
Method: To each well of a 384-well plate, 1 μL of test compounds in DMSO (final concentration ranging from 0.3 nM to 10 uM) were added into 20 μl of assay buffer (50 mM Tris pH 7.4/0.01% Tween-20/0.1 mg/ml bovine serum albumin/10 μM ferrous sulfate/1 mM sodium ascorbate/20 μg/ml catalase) containing 0.15 μg/ml FLAG-tagged full length PHD2 expressed in and purified from baculovirus-infected Sf9 cells. After a 5 min preincubation at room temperature, the enzymatic reactions were initiated by the addition of 4 μL of substrates {final concentrations of 0.2 μM 2-oxoglutarate and 0.5 μM HIF-1α peptide biotinyl-[…] […] After incubation for 45 minutes at room temperature, the reactions were terminated by the addition of a 25 μL quench/detection mix to a final concentration of 1 mM ortho-phenanthroline, 0.1 mM EDTA, 0.5 nM anti-(His)6 LANCE reagent (Perkin-Elmer Life Sciences), 100 nM AF647-labeled streptavidin (Invitrogen), and 2 μg/ml (His)6-VHL complex {S. Tan Protein Expr. Purif.

T1 sequence (Q9GZT9 whole entry): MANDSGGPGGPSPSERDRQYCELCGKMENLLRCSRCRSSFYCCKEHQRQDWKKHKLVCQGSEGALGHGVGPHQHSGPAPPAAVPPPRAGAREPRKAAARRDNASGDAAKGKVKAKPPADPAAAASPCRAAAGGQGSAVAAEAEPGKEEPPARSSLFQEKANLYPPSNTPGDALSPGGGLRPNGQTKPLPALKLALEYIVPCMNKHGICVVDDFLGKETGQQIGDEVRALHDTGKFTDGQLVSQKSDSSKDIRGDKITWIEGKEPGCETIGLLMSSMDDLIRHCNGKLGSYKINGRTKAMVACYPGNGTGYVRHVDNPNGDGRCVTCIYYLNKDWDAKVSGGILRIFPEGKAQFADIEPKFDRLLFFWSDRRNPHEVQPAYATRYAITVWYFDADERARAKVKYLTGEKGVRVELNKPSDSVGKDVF

SMILES | IC50 [nM]
O=C(O)CNC(=O)c1c(O)c2c(Br)ccc3c2n(c1=O)C(Cc1ccc(C(F)(F)F)cc1)CO3 (centres unmarked) [Example 26, 2-(8-bromo-7-hydroxy-5-oxo-3-(4-(trifluoromethyl)benzyl)-3,5-dihydro-2H-[1,4]oxazino[2,3,4-ij]quinoline-6-carboxamido)acetic acid] | 8.1
O=C(O)CNC(=O)c1c(O)c2ccc(Br)c3c2n(c1=O)C(Cc1ccc(C(F)(F)F)cc1)CO3 (centres unmarked) [Example 27, 2-(10-Bromo-7-hydroxy-5-oxo-3-(4-(trifluoromethyl)benzyl)-3,5-dihydro-2H-[1,4]oxazino[2,3,4-ij]quinoline-6-carboxamido)acetic acid] | 5.7
CS(=O)(=O)c1ccc2c3c1c(O)c(C(=O)NCC(=O)O)c(=O)n3C(Cc1ccc(C(F)(F)F)cc1)CO2 (centres unmarked) [Example 28, 2-(7-Hydroxy-8-(methylsulfonyl)-5-oxo-3-(4-(trifluoromethyl)benzyl)-3,5-dihydro-2H-[1,4]oxazino[2,3,4-ij]quinoline-6-carboxamido)acetic acid] | 42
N#Cc1ccc2c3c1c(O)c(C(=O)NCC(=O)O)c(=O)n3C(Cc1ccc(C(F)(F)F)cc1)CO2 (centres unmarked) [Example 29, 2-(8-Cyano-7-hydroxy-5-oxo-3-(4-(trifluoromethyl)benzyl)-3,5-dihydro-2H-[1,4]oxazino[2,3,4-ij]quinoline-6-carboxamido)acetic acid] | 1.3
Cc1ccc2c3c1c(O)c(C(=O)NCC(=O)O)c(=O)n3C(Cc1ccc(C(F)(F)F)cc1)CO2 (centres unmarked) [Example 30, 2-(7-Hydroxy-8-methyl-5-oxo-3-(4-(trifluoromethyl)benzyl)-3,5-dihydro-2H-[1,4]oxazino[2,3,4-ij]quinoline-6-carboxamido)acetic acid] | 39
CS(=O)(=O)c1ccc2c(O)c(C(=O)NCC(=O)O)c(=O)n3c2c1OCC3Cc1ccc(C(F)(F)F)cc1 (centres unmarked) [Example 31, 2-(7-Hydroxy-10-(methylsulfonyl)-5-oxo-3-(4-(trifluoromethyl)benzyl)-3,5-dihydro-2H-[1,4]oxazino[2,3,4-ij]quinoline-6-carboxamido)acetic acid] | 1
N#Cc1ccc2c(O)c(C(=O)NCC(=O)O)c(=O)n3c2c1OCC3Cc1ccc(C(F)(F)F)cc1 (centres unmarked) [Example 32, 2-(10-Cyano-7-hydroxy-5-oxo-3-(4-(trifluoromethyl)benzyl)-3,5-dihydro-2H-[1,4]oxazino[2,3,4-ij]quinoline-6-carboxamido)acetic acid] | 1.3
Cc1ccc2c(O)c(C(=O)NCC(=O)O)c(=O)n3c2c1OCC3Cc1ccc(C(F)(F)F)cc1 (centres unmarked) [Example 33, 2-(7-Hydroxy-10-methyl-5-oxo-3-(4-(trifluoromethyl)benzyl)-3,5-dihydro-2H-[1,4]oxazino[2,3,4-ij]quinoline-6-carboxamido)acetic acid] | 17
CC(=O)c1cc2c3c(c1)c(O)c(C(=O)NCC(=O)O)c(=O)n3C(Cc1ccc(C(F)(F)F)cc1)CO2 (centres unmarked) [Example 34, 2-(9-acetyl-7-hydroxy-5-oxo-3-(4-(trifluoromethyl)benzyl)-3,5-dihydro-2H-[1,4]oxazino[2,3,4-ij]quinoline-6-carboxamido)acetic acid] | 3.2
CC(O)c1cc2c3c(c1)c(O)c(C(=O)NCC(=O)O)c(=O)n3C(Cc1ccc(C(F)(F)F)cc1)CO2 (centres unmarked) [Example 35, 2-(7-Hydroxy-9-(1-hydroxyethyl)-5-oxo-3-(4-(trifluoromethyl)benzyl)-3,5-dihydro-2H-[1,4]oxazino[2,3,4-ij]quinoline-6-carboxamido)acetic acid] | 12
CC(C)(O)c1cc2c3c(c1)c(O)c(C(=O)NCC(=O)O)c(=O)n3C(Cc1ccc(C(F)(F)F)cc1)CO2 (centres unmarked) [Example 36, 2-(7-Hydroxy-9-(2-hydroxypropan-2-yl)-5-oxo-3-(4-(trifluoromethyl)benzyl)-3,5-dihydro-2H-[1,4]oxazino[2,3,4-ij]quinoline-6-carboxamido)acetic acid] | 17
N#Cc1ccc2c(O)c(C(=O)NCC(=O)O)c(=O)n3c2c1OCC3 [Example 37, 2-(10-cyano-7-hydroxy-5-oxo-3,5-dihydro-2H-[1,4]oxazino[2,3,4-ij]quinoline-6-carboxamido)acetic acid] | 1.5
CS(=O)(=O)c1ccc2c(O)c(C(=O)NCC(=O)O)c(=O)n3c2c1OCC3 [Example 38, 2-(7-Hydroxy-10-(methylsulfonyl)-5-oxo-3,5-dihydro-2H-[1,4]oxazino[2,3,4-ij]quinoline-6-carboxamido)acetic acid] | 1.6
Cc1ccc2c(O)c(C(=O)NCC(=O)O)c(=O)n3c2c1OCC3 [Example 39, 2-(7-Hydroxy-10-methyl-5-oxo-3,5-dihydro-2H-[1,4]oxazino[2,3,4-ij]quinoline-6-carboxamido)acetic acid] | 12

Second part, the compound after the results:

IC50 [nM] | SMILES
24 | Cc1cc2c3c(c1)c(O)c(C(=O)NCC(=O)O)c(=O)n3CCO2 [Example 43, 2-(7-hydroxy-9-methyl-5-oxo-3,5-dihydro-2H-[1,4]oxazino[2,3,4-ij]quinoline-6-carboxamido)acetic acid]
0.9 | N#Cc1ccc2c(O)c(C(=O)NCC(=O)O)c(=O)n3c2c1CCC3 [Example 44, 2-(8-Cyano-1-hydroxy-3-oxo-3,5,6,7-tetrahydropyrido[3,2,1-ij]quinoline-2-carboxamido)acetic acid]
1.1 | CS(=O)(=O)c1ccc2c(O)c(C(=O)NCC(=O)O)c(=O)n3c2c1CCC3 [Example 45, 2-(1-Hydroxy-8-(methylsulfonyl)-3-oxo-3,5,6,7-tetrahydropyrido[3,2,1-ij]quinoline-2-carboxamido)acetic acid]
18 | Cc1ccc2c(O)c(C(=O)NCC(=O)O)c(=O)n3c2c1CCC3 [Example 46, 2-(1-Hydroxy-8-methyl-3-oxo-3,5,6,7-tetrahydropyrido[3,2,1-ij]quinoline-2-carboxamido)acetic acid]
2.6 | N#Cc1cc2c3c(c1)c(O)c(C(=O)NCC(=O)O)c(=O)n3CCC2 [Example 48, 2-(9-Cyano-1-hydroxy-3-oxo-3,5,6,7-tetrahydropyrido[3,2,1-ij]quinoline-2-carboxamido)acetic acid]
1.4 | CS(=O)(=O)c1cc2c3c(c1)c(O)c(C(=O)NCC(=O)O)c(=O)n3CCC2 [Example 49, 2-(1-Hydroxy-9-(methylsulfonyl)-3-oxo-3,5,6,7-tetrahydropyrido[3,2,1-ij]quinoline-2-carboxamido)acetic acid]
13 | O=C(O)CNC(=O)c1c(O)c2ccnc3c2n(c1=O)CC(c1ccc(C(F)(F)F)cc1)O3 (centres unmarked) [Example 51, 2-(7-Hydroxy-5-oxo-2-(4-(trifluoromethyl)phenyl)-3,5-dihydro-2H-[1,4]oxazino[2,3,4-ij][1,7]naphthyridine-6-carboxamido)acetic acid]

Same assay, conditions: FLAG-tagged full length PHD2; 0.2 μM 2-oxoglutarate, 0.5 μM HIF-1α peptide; 45 minutes at room temperature; read-out: MS m/z (M + 1)+ and human HIF-PHD2 IC50

IC50 [nM] | SMILES
1.6 | O=C(O)CNC(=O)c1c(O)c2ccc(-c3ccccc3)c3c2n(c1=O)CCO3 [Example 40, 2-(7-hydroxy-5-oxo-10-phenyl-3,5-dihydro-2H-[1,4]oxazino[2,3,4-ij]quinoline-6-carboxamido)acetic acid]

Same assay, conditions: Human HIF-PHD2 IC50, FLAG-tagged full length PHD2; 0.2 μM 2-oxoglutarate, 0.5 μM HIF-1α peptide; 45 minutes at room temperature

IC50 [nM] | SMILES
99 | O=C(O)CNC(=O)c1c(O)c2cc(Br)cc3c2n(c1=O)CCC3 [Example 47, 2-(9-Bromo-1-hydroxy-3-oxo-3,5,6,7-tetrahydropyrido[3,2,1-ij]quinoline-2-carboxamido)acetic acid]
